Reference: patent publication US6706663B2, “Herbicidal 3-heterocyclic substituted benzisothiazole and benzisoxazole compounds” (Wyeth, priority 2000, dated 2004)

Columns and labels:
[1] = system: IPOHE (Ipomoea hederacea); experiment: Postemergence herbicidal evaluation; format: in vivo, (L.) Jacq.; conditions: for IPOHE herbicidal rating: postemergence
Procedure, shortened: (§1)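 Seedlings grown about two weeks in flats, sprayed, then kept under standard greenhouse care. Rated visually 4–5 weeks after treatment on a 0–9 scale (stand, vigour, malformation, size, chlorosis, overall appearance) relative to untreated control; repeat tests averaged.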

[2] = system: SETVI (Setaria viridis); experiment: Postemergence herbicidal evaluation; format: in vivo, (L.) Beau; conditions: for SETVI herbicidal rating: postemergence
Procedure, shortened: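 Seedlings about two weeks old were sprayed with compound in 50/50 acetone/water plus 0.5% TWEEN 20, at the equivalent of about 0.0040 to 1.000 kg/ha. Plants were kept in a greenhouse and visually rated 0-9 against a control four to five weeks after treatment. Repeat tests were averaged.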

[3] = system: TRZAWR (Wheat, Winter, cv Riband); experiment: Postemergence herbicidal evaluation; format: in vivo, Triticum aestivum; conditions: for TRZAWR herbicidal rating: postemergence
Procedure, shortened: as §1

[4] = system: ECHCG (Echinochloa crus-galli); experiment: Preemergence herbicidal evaluation; format: in vivo, (L.) Beau; conditions: rated 4-5 weeks after treatment
Procedure, shortened: (§2)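 Scores (0–9) reflect visual comparison with control plants for stand, vigor, malformation, size and chlorosis. Seeds in potting soil received a post-planting spray of compound in aqueous acetone and grew in a greenhouse until assessment 4–5 weeks later.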

[5] = system: SETVI (Setaria viridis); experiment: Preemergence herbicidal evaluation; format: in vivo, (L.) Beau; conditions: rated 4-5 weeks after treatment
Procedure, shortened: as §2

[6] = system: GLXMAW (Soybean, Williams); experiment: Preemergence herbicidal evaluation; format: in vivo, Glycine max, (L.) Merr. cv Williams; conditions: rated 4-5 weeks after treatment
[7] = system: ZEAMX (Corn, Field); experiment: Preemergence herbicidal evaluation; format: in vivo, Zea mays, L.; conditions: rated 4-5 weeks after treatment
[8] = system: ECHORC (Echinochloa oryzoides); experiment: Flooded paddy, preemergence weed control; format: in vivo, Echinochloa oryzoides (Ard.) Fritsch.; conditions: rated 3-4 weeks after treatment, 0-9 rating scale
Procedure, shortened: (§3)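 Ratings of 0-9 reflect visual comparison with a control for stand, vigor, deformity, size, chlorosis and overall look. Propagules were placed in shallow silt loam (top 0.5 cm) under a continuous 1.5–3 cm flood and grown in the greenhouse.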

[9] = system: CYPIR (Cyperus iria); experiment: Flooded paddy, preemergence weed control; format: in vivo; conditions: rated 3-4 weeks after treatment, 0-9 rating scale
Procedure, shortened: as §3

[10] = system: MOOVA (Monochoria vaginalis); experiment: Flooded paddy, preemergence weed control; format: in vivo, Presl.; conditions: rated 3-4 weeks after treatment, 0-9 rating scale
Procedure, shortened: as §3

Compound	Preemergence herbicidal rating ECHCG ([4]; Rate 0.0620 kg/ha)	Preemergence herbicidal rating ECHCG ([4]; Rate 0.1250 kg/ha)	Preemergence herbicidal rating ECHCG ([4]; Rate 0.2500 kg/ha)	Preemergence herbicidal rating SETVI ([5]; Rate 0.0620 kg/ha)	Preemergence herbicidal rating SETVI ([5]; Rate 0.1250 kg/ha)	Preemergence herbicidal rating SETVI ([5]; Rate 0.2500 kg/ha)	Preemergence herbicidal rating GLXMAW ([6]; Rate 0.0620 kg/ha)	Preemergence herbicidal rating GLXMAW ([6]; Rate 0.1250 kg/ha)	Preemergence herbicidal rating GLXMAW ([6]; Rate 0.2500 kg/ha)	Preemergence herbicidal rating ZEAMX ([7]; Rate 0.0620 kg/ha)	Preemergence herbicidal rating ZEAMX ([7]; Rate 0.1250 kg/ha)	Preemergence herbicidal rating ZEAMX ([7]; Rate 0.2500 kg/ha)	herbicidal rating, ECHORC ([8]; rate 0.0080 kg/ha)	herbicidal rating, ECHORC ([8]; rate 0.0320 kg/ha)	herbicidal rating, ECHORC ([8]; rate 0.1250 kg/ha)	herbicidal rating, CYPIR ([9]; rate 0.0080 kg/ha)	herbicidal rating, CYPIR ([9]; rate 0.0320 kg/ha)	herbicidal rating, CYPIR ([9]; rate 0.1250 kg/ha)	herbicidal rating, MOOVA ([10]; rate 0.0320 kg/ha)	herbicidal rating, MOOVA ([10]; rate 0.1250 kg/ha)	further results
C[C@@H]1OC(c2nsc3ccc(-n4c(=O)cc(C(F)(F)F)n(C)c4=O)cc23)O[C@@H]1C (stereo partly drawn) [Compound 47, 3-[3-[(4R,5S)-4,5-dimethyl-1,3-dioxolan-2-yl]-1,2-benzisothiazol-5-yl]-1-methyl-6-(trifluoromethyl)uracil]	9.0	9.0	9.0	9.0	8.5	9.0	7.0	8.0	9.0	7.5	8.0	9.0	5.0	8.5	9.0	0.0	8.5	9.0	9.0	9.0	Postemergence herbicidal rating, IPOHE ([1]; rate 0.0320 kg/ha): 9.0; Postemergence herbicidal rating, IPOHE ([1]; rate 0.0620 kg/ha): 9.0; Postemergence herbicidal rating, SETVI ([2]; rate 0.0320 kg/ha): 9.0; Postemergence herbicidal rating, SETVI ([2]; rate 0.0620 kg/ha): 9.0; Postemergence herbicidal rating, TRZAWR ([3]; rate 0.0320 kg/ha): 5.0; Postemergence herbicidal rating, TRZAWR ([3]; rate 0.0620 kg/ha): 6.0
C[C@H]1OC(c2nsc3ccc(-n4c(=O)cc(C(F)(F)F)n(C)c4=O)cc23)O[C@@H]1C [Compound 48, 3-[3-[(4R,5R)-4,5-dimethyl-1,3-dioxolan-2-yl]-1,2-benzisothiazol-5-yl]-1-methyl-6-(trifluoromethyl)uracil]	9.0	9.0	9.0	9.0	9.0	9.0	9.0	9.0	9.0	7.5	8.0	9.0	8.0	9.0	9.0	0.0	8.0	9.0	9.0	9.0	Postemergence herbicidal rating, IPOHE ([1]; rate 0.0320 kg/ha): 9.0; Postemergence herbicidal rating, IPOHE ([1]; rate 0.0620 kg/ha): 9.0; Postemergence herbicidal rating, SETVI ([2]; rate 0.0320 kg/ha): 9.0; Postemergence herbicidal rating, SETVI ([2]; rate 0.0620 kg/ha): 9.0; Postemergence herbicidal rating, TRZAWR ([3]; rate 0.0320 kg/ha): 5.0; Postemergence herbicidal rating, TRZAWR ([3]; rate 0.0620 kg/ha): 5.7
Cc1nn(-c2nsc3ccc(-n4c(=O)cc(C(F)(F)F)n(C)c4=O)cc23)c(C)c1C [Compound 49, 1-methyl-6-(trifluoromethyl)-3-[3-(3,4,5-trimethylpyrazol-1-yl)-1,2-benzisothiazol-5-yl]uracil]	0.0	0.0	0.0	0.0	0.0	0.0	0.0	0.0	0.0	0.0	0.0	0.0		0.0	0.0		0.0	0.0	0.0		IPOHE herbicidal rating ([1]; rate 0.0320 kg/ha): 5.0; IPOHE herbicidal rating ([1]; rate 0.0620 kg/ha): 8.0; SETVI herbicidal rating ([2]; rate 0.0320 kg/ha): 0.0; SETVI herbicidal rating ([2]; rate 0.0620 kg/ha): 0.0; TRZAWR herbicidal rating ([3]; rate 0.0320 kg/ha): 0.5; TRZAWR herbicidal rating ([3]; rate 0.0620 kg/ha): 1.5
C[C@@H]1C[C@H](C)OC(c2nsc3ccc(-n4c(=O)cc(C(F)(F)F)n(C)c4=O)cc23)O1 (stereo partly drawn) [Compound 50, 3-[3-[(4R,6S)-4,6-dimethyl-m-dioxan-2-yl]-1,2-benzisothiazol-5-yl]-1-methyl-6-(trifluoromethyl)uracil]	9.0	9.0	9.0	9.0	9.0	9.0	7.5	9.0	8.0	9.0	9.0	9.0	7.0	7.5	9.0	0.0	7.5	8.0	9.0	9.0	IPOHE herbicidal rating ([1]; rate 0.0320 kg/ha): 9.0; IPOHE herbicidal rating ([1]; rate 0.0620 kg/ha): 9.0; SETVI herbicidal rating ([2]; rate 0.0320 kg/ha): 9.0; SETVI herbicidal rating ([2]; rate 0.0620 kg/ha): 9.0; TRZAWR herbicidal rating ([3]; rate 0.0320 kg/ha): 4.5; TRZAWR herbicidal rating ([3]; rate 0.0620 kg/ha): 4.5
C[C@@H]1C[C@H](C)OC(c2nsc3ccc(-n4c(=O)cc(C(F)(F)F)n(C)c4=O)cc23)O1 (stereo partly drawn) [Compound 51, 3-[3-[(4R,6S)-4,6-dimethyl-m-dioxan-2-yl]-1,2-benzisothiazol-5-yl]-1-methyl-6-(trifluoromethyl)uracil]	9.0	9.0	9.0	9.0	9.0	9.0	9.0	9.0	9.0	8.0	8.5	9.0	8.0	9.0	9.0	3.0	8.0	9.0	9.0	9.0	IPOHE herbicidal rating ([1]; rate 0.0320 kg/ha): 9.0; IPOHE herbicidal rating ([1]; rate 0.0620 kg/ha): 9.0; SETVI herbicidal rating ([2]; rate 0.0320 kg/ha): 3.0; SETVI herbicidal rating ([2]; rate 0.0620 kg/ha): 3.0; TRZAWR herbicidal rating ([3]; rate 0.0320 kg/ha): 3.5; TRZAWR herbicidal rating ([3]; rate 0.0620 kg/ha): 4.0
